In this assay the test system is MX-1 breast xenograft, nude mice, tumor weight change. The experiment in a line: NCI In Vivo Anticancer Drug Screen. Data for tumor model Human Mammary Carcinoma MX-1 Xenograft (subcutaneous) in NU/NU Swiss (nude) mice. The settings on record: endpoint: optimum tumor weight change, schedule: Q04DX003 (ip), higher = larger tumour. The method, then:
The antitumor activity of compounds was measured in mice bearing transplantable tumors. Survival or tumor size were measured and the results are expressed as the measurement made in the treated group (T) divided by the measurement made in the vehicle treated control group (C). The tumor model used in this assay is Human Mammary Carcinoma MX-1 Xenograft (subcutaneous) in NU/NU Swiss (nude) mice

Where [1] appears, read: dose: 25.0 mg/kg/injection, vehicle: saline.
[2] abbreviates: dose: 1.0 mg/kg/injection, vehicle: water.
Where [3] appears, read: dose: 50.0 mg/kg/injection, vehicle: Klucel (hydroxypropylcellulose) (HPC).
Setting [4] is: dose: 200.0 mg/kg/injection, vehicle: Klucel (hydroxypropylcellulose) (HPC).
Setting [5] is: dose: 100.0 mg/kg/injection, vehicle: saline with Tween-80.
Where [6] appears, read: dose: 200.0 mg/kg/injection, vehicle: saline with Tween-80.
Setting [7] is: dose: 400.0 mg/kg/injection, vehicle: saline with Tween-80.
The mark [8] stands for this setting: dose: 800.0 mg/kg/injection, vehicle: saline with Tween-80.
[9] abbreviates: dose: 200.0 mg/kg/injection, vehicle: suspension in saline.
Setting [10] is: dose: 400.0 mg/kg/injection, vehicle: suspension in saline.
The mark [11] stands for this setting: dose: 5.0 mg/kg/injection, vehicle: Klucel (hydroxypropylcellulose) (HPC).
Setting [12] is: dose: 10.0 mg/kg/injection, vehicle: Klucel (hydroxypropylcellulose) (HPC).
Where [13] appears, read: dose: 4.0 mg/kg/injection, vehicle: saline.
Setting [14] is: dose: 8.0 mg/kg/injection, vehicle: saline.
Setting [15] is: dose: 32.0 mg/kg/injection, vehicle: saline.
[16] abbreviates: dose: 64.0 mg/kg/injection, vehicle: saline.
[17] abbreviates: dose: 100.0 mg/kg/injection, vehicle: Klucel (hydroxypropylcellulose) (HPC).

Where “and” joins values, the source holds several entries; their conditions need not be identical. Equal values may be shown once.

With `COc1cccc2c1C(=O)c1c(O)c3c(c(O)c1C2=O)C[C@@](O)(/C(C)=N\O)C[C@@H]3OC1CC(N)C(O)C(C)O1` (stereo not given in full), the T/C under setting [1] was 66 % of control.

For `COc1cccc2c1C(=O)c1c(O)c3c(c(O)c1C2=O)C[C@@](O)(C(=O)CO)C[C@@H]3OC1CC(N)C(O)C(C)O1` (stereo not given in full), under setting [2], the T/C was 97 % of control.

Turning to `COc1cccc2c1C(=O)c1c(O)c3c(c(O)c1C2=O)C[C@@](O)(C(=O)CO)C[C@@H]3OC1CC(N)CC(C)O1` (stereo not given in full), the T/C reads like this: (dose: 0.13 mg/kg/injection, vehicle: water) 93 % of control; (dose: 0.25 mg/kg/injection, vehicle: water) 112 % of control; (dose: 0.5 mg/kg/injection, vehicle: water) 97 % of control; (dose: 0.75 mg/kg/injection, vehicle: water) 93 % of control; under setting [2], 65 % of control; (dose: 1.5 mg/kg/injection, vehicle: water) 78 % of control. Further, the T/C (dose: 3.0 mg/kg/injection, vehicle: water) was 63 % of control.

`O=[N+]([O-])/C=C\c1ccc2c(c1)OCO2`: the T/C runs as follows: under setting [3], 83 % of control; under setting [4], 81 % of control.

On to `COC1C(O)CC(OC2CC(OC3CC(O[C@@H]4C(=O)c5c(cc6cc(OC7CC(OC8CC(O)C(O)C(C)O8)C(O)C(C)O7)c(C)c(O)c6c5O)C[C@H]4[C@H](OC)C(=O)[C@@H](O)[C@@H](C)O)OC(C)C3O)OC(C)C2O)OC1C` (stereo not given in full), for which the T/C (dose: 0.75 mg/kg/injection, vehicle: saline) was 90 % of control and 95 % of control.

Consider `CN(C)N=Nc1ccccc1`, for which, under setting [3], the T/C is 221 % of control.

Regarding `O=NN(CCCl)C(=O)NC1CCCCC1`, the T/C (dose: 12.5 mg/kg/injection, vehicle: Klucel (hydroxypropylcellulose) (HPC)) is 75 % of control.

Turning to `NC(=S)N/N=C/c1ccc(O)cn1`, the T/C is 81 % of control under setting [5], 46 % of control under setting [6], 39 % of control under setting [7] and 73 % of control under setting [8].

Turning to `CNC(=O)ON(C(C)=O)C(=O)NC`, the T/C (dose: 12.5 mg/kg/injection, vehicle: saline) is 81 % of control and the T/C under setting [1] is 108 % of control.

For the compound `COc1cc([C@@H]2c3cc4c(c(O)c3C[C@H]3COC(=O)[C@@H]32)OCO4)cc(OC)c1OC`, the T/C was 113 % of control (dose: 2.5 mg/kg/injection, vehicle: saline); 64 % of control (dose: 5.0 mg/kg/injection, vehicle: saline); 112 % of control (dose: 10.0 mg/kg/injection, vehicle: saline).

As to `O=CC(S)CO` (stereo not given), the T/C (dose: 200.0 mg/kg/injection, vehicle: saline) was 61 % of control.

With `N=c1ccn2c(n1)OC1C(O)C(CO)OC12` (stereo not given), the T/C was 65 % of control under setting [9]; 65 % of control under setting [10]; 47 % of control (dose: 800.0 mg/kg/injection, vehicle: suspension in saline).

As for `NC(Cc1ccc(N(CCCl)CCCl)cc1)C(=O)O` (stereo not given), the T/C (dose: 2.5 mg/kg/injection, vehicle: Klucel (hydroxypropylcellulose) (HPC)) was 49 % of control; the T/C under setting [11] was 15 % of control; the T/C under setting [12] is -69 % of control and -81 % of control.

Consider `O=P1(NCCCl)OCCCN1CCCl` (stereo not given), for which the T/C is 57 % of control under setting [1] and 56 % of control (dose: 50.0 mg/kg/injection, vehicle: saline).

As to `Cc1c(N)nc([C@H](CC(N)=O)NC[C@H](N)C(N)=O)nc1C(=O)N[C@H](C(=O)N[C@H](C)[C@@H](O)CC(=O)N[C@H](C(=O)NC(O[C@@H]1O[C@@H](C)[C@@H](N)[C@@H](O)[C@H]1O)C(O)c1nc(-c2nc(C(=O)NCCCCN)cs2)cs1)[C@@H](C)O)[C@@H](O[C@@H]1O[C@@H](CO)[C@@H](O)[C@H](O)[C@@H]1O[C@H]1O[C@H](CO)[C@@H](O)[C@H](OC(N)=O)[C@@H]1O)c1c[nH]cn1` (stereo not given in full), the T/C (dose: 2.0 mg/kg/injection, vehicle: saline) was 84 % of control; the T/C under setting [13] was 47 % of control; the T/C under setting [14] was 42 % of control; the T/C under setting [15] is 7 % of control and 21 % of control and 29 % of control; the T/C under setting [16] is 32 % of control.

As to `ClCC[N+]12CC[N+](CCCl)(CC1)C2`, the T/C is, setting by setting: under setting [5], 60 % of control; under setting [6], 56 % of control; (dose: 200.0 mg/kg/injection, vehicle: water) 51 % of control; under setting [7], 59 % of control; (dose: 400.0 mg/kg/injection, vehicle: water) 53 % of control; under setting [8], 31 % of control. In addition, under “dose: 1600.0 mg/kg/injection, vehicle: saline with Tween-80”, the T/C was 28 % of control.

On to `O=S(CCCl)CCCl`, for which the T/C (dose: 25.0 mg/kg/injection, vehicle: Klucel (hydroxypropylcellulose) (HPC)) is 75 % of control and the T/C under setting [17] is 34 % of control.

For the compound `N[C@@H](Cc1ccc(N(CCCl)CCCl)cc1)C(=O)O`, the T/C was 49 % of control (dose: 2.0 mg/kg/injection, vehicle: Klucel (hydroxypropylcellulose) (HPC)); 37 % of control (dose: 4.0 mg/kg/injection, vehicle: Klucel (hydroxypropylcellulose) (HPC)); 19 % of control and 36 % of control (dose: 4.0 mg/kg/injection, vehicle: suspension in saline); -42 % of control (dose: 8.0 mg/kg/injection, vehicle: Klucel (hydroxypropylcellulose) (HPC)).

On to `Oc1ccc(O)cc1`, for which, under “dose: 100.0 mg/kg/injection, vehicle: saline”, the T/C was 110 % of control.

For `Cc1c(N)nc([C@H](CC(N)=O)NC[C@H](N)C(N)=O)nc1C(=O)N[C@H](C(=O)N[C@H](C)[C@@H](O)[C@H](C)C(=O)N[C@H](C(=O)NCCc1nc(-c2nc(C(=O)NCCC[S+](C)C)cs2)cs1)[C@@H](C)O)C(OC1OC(CO)C(O)C(O)C1OC1OC(CO)C(O)C(OC(N)=O)C1O)c1cnc[nH]1` (stereo not given in full), the T/C reads like this: (dose: 3.75 mg/kg/injection, vehicle: saline) 52 % of control; under setting [13], 55 % of control; (dose: 7.5 mg/kg/injection, vehicle: saline) 40 % of control and 41 % of control; under setting [14], 55 % of control and 67 % of control; (dose: 15.0 mg/kg/injection, vehicle: saline) 31 % of control (2×) and 39 % of control; (dose: 16.0 mg/kg/injection, vehicle: saline) 32 % of control and 39 % of control. Also, the T/C (dose: 30.0 mg/kg/injection, vehicle: saline) is 17 % of control and 21 % of control and 25 % of control; the T/C under setting [15] is 15 % of control and 22 % of control and 27 % of control; the T/C (dose: 60.0 mg/kg/injection, vehicle: saline) is 13 % of control and 21 % of control; the T/C under setting [16] was 16 % of control and 27 % of control.

With `COC1C(C)OC(OC2CC(C)(O)Cc3cc4c(c(O)c32)C(=O)c2c(O)cc3c(c2C4=O)OC2OC3(C)C(O)C(N(C)C)C2O)C(OC)C1(C)OC` (stereo not given), the T/C was 204 % of control under setting [11] and 207 % of control under setting [12].

`C=CC(=O)N1CN(C(=O)C=C)CN(C(=O)C=C)C1`: the T/C (dose: 12.5 mg/kg/injection, vehicle: saline with Tween-80) is 52 % of control.

`Cc1cc(N(CCOS(C)(=O)=O)CCOS(C)(=O)=O)ccc1C=Nc1ccc(-c2nc(Cc3ccccc3)sc2C)cc1`: the T/C by setting is: under setting [3], 46 % of control; under setting [17], -84 % of control; under setting [4], -73 % of control.

Turning to `CC(CN1CC(=O)NC(=O)C1)N1CC(=O)NC(=O)C1` (stereo not given), the T/C is, setting by setting: (dose: 100.0 mg/kg/injection, vehicle: suspension in saline) 65 % of control; under setting [9], 73 % of control; under setting [10], 55 % of control.

For the origin of these results see PubChem BioAssay AID294 (DTP/NCI, 2004).
